{"source": "patent US20230331827A1", "about": "“POTASSIUM CHANNEL INHIBITORS” (priority 2017, published 2023)", "system": "trypsin", "test": "Phage TRF binding assay on immobilised biotinylated trypsin (monoclonal phage ELISA)", "conditions": "presented on phage as direct N-terminus gene-III fusion", "experimental": "Phage display technology facilitates isolation of binders to any given target from large combinatorial repertoires based on proteins and peptides that can be presented on the surface of filamentous phage^105. In order to isolate functional knottin-antibody fusions from the KnotBody libraries multiple rounds of phage display selections on trypsin (cognate antigen for the EETI-II donor) were carried out. Phage particles were prepared by rescuing KnotBody libraries using trypsin cleavable helper phage ^102,106Two rounds of phage display selections were performed on 10 µg/ml biotinylated trypsin immobilised on Streptavidin (for Round-1) or Neutravidin (for round-2) coated Maxisorp™ immunotubes (Thermo Scientific, Cat No. 444202). In both rounds of selection, phage libraries were pre-incubated with streptavidin coated paramagnetic beads (Thermo Fisher Scientific, Cat. No. 11205D). […] Polyclonal phage preparations from round-2 selection outputs were analysed for trypsin binding using a time resolved fluorescence (TRF) binding assay. In this assay, polyclonal phage binding to biotinylated trypsin immobilised on neutravidin (Thermo Fisher Scientific, Cat. No 31000) coated Maxisorp™ plates (Thermo Scientific, Cat. No. 437111) was detected using a mouse anti-M13 antibody (GE Healthcare, Cat. No. 27-9420-01) followed by europium conjugated anti-mouse antibody (Perkin Elmer, Cat. No. AD0124). […]"}
{"substance": "Ecballium elaterium trypsin inhibitor-II [EETI-II, reference compound]", "values": [{"measurement": "binding to trypsin", "result": "no detectable binding to trypsin"}]}
